In patent publication US7018979B1, “Method for using potassium channel agonists for delivering a medicant to an abnormal brain region and/or a malignant tumor” (Cedars-Sinai Medical Center, priority 2000, dated 2006):
Entries after “also recorded” stand apart in the source; their conditions may differ. Counter-ions that a name gives are not always drawn.

Assays:
[1] = cited from earlier work
[2] = Arterial blood pressure monitored during intracarotid infusion; settings: higher doses, 100 and 110 μg/kg/min

| Compound | solubility in water [1] | arterial blood pressure [2] |
| --- | --- | --- |
| CC(N/C(=N\C#N)Nc1ccncc1)C(C)(C)C (racemic) [pinacidil, (+/−)-N-cyano-N′-4-pyridinyl-N″-(1,2,2-trimethylpropyl)-guanidine] | insoluble in water; also recorded: not easily dissolved in water |  |
| O=c1[nH]c2cc(C(F)(F)F)ccc2n1-c1cc(C(F)(F)F)ccc1O [NS-1619, 1,3-dihydro-1-[2-hydroxy-5-(trifluoromethyl)phenyl]-5-(trifluoromethyl)-2H-benzimidazol-2-one] | not easily dissolved in water | significant drop |
| CC1=NS(=O)(=O)c2cc(Cl)ccc2N1 [diazoxide] | not easily dissolved in water |  |
| Nc1cc(N2CCCCC2)nc(N)[n+]1OS(=O)(=O)[O-] [minoxidil sulfate] | not easily dissolved in water |  |
